According to patent US20260273012A1, “Camellia Oleifera Tea Oil Concentrate and Uses Thereof” (Laboratoires Expanscience, priority 2023, published 2026):

Legend:
Type in all cases: cell-based
[1] = tested on: CXCL1, IL8, IL6, CCL2, SOD2, HAS2, MMP1, MMP3 gene expression in normal human dermal fibroblasts; assay: Inflamm'aging model: gene expression in fibroblasts incubated with conditioned media of PMA-stimulated reconstructed epidermis; details: Dexa. 1 μM; control = 100
Protocol: Tea oil concentrate was evaluated in an in vitro model reproducing the process of “inflammaging”: inflammation, represented by the stimulation of IL-1 alpha production, is induced on reconstructed epidermis. The conditioned media of these reconstructed epidermis are then applied to fibroblasts and the expression of dermal markers, altered by IL1a produced by the epidermis, is evaluated.
Reconstructed epidermis were treated topically with a formulation (cream) containing 1% tea tree oil concentrate or its placebo, or systemically with 1 μM dexamethasone, an anti-inflammatory reference. After 24 hours of pre-incubation, epidermis were stimulated with 0.5 μg/ml of PMA and incubated again for 24 hours.
Culture subnatants were collected, IL-1 alpha assay was performed on the one hand, and on the other hand, these subnatants (conditioned media) were deposited on cultures of normal human dermal fibroblasts.
After 24 hours of incubation of fibroblasts in the presence of conditioned media, the expression of markers of interest was assessed by real-time quantitative PCR.
(§1) The results were statistically analyzed using ANOVA followed by Tukey's test.

[2] = tested on: interleukin-1 alpha (IL-1 alpha); assay: IL-1 alpha produced by normal human keratinocytes under PMA-induced inflammatory stress (ELISA); details: Dexamethasone 0.1 μM, PMA 10 μg/ml
Protocol: (§2) The anti-inflammatory activity of tea oil concentrate (THE) was investigated by assaying interleukin-1 alpha (IL-1 alpha) produced by keratinocytes in response to pro-inflammatory stress induced by PMA (Phorbol-Myristate-Acetate) in a normal human keratinocyte model, in a reconstructed epidermis model subjected to PMA stress, as well as in a reconstructed epidermis model subjected to SDS (Sodium Dodecyl Sulfate) stress.
Normal human keratinocytes were pre-incubated for 24 hours in the presence of 0.001%, 0.005% or 0.01% tea tree oil concentrate or 0.1 μM dexamethasone, an anti-inflammatory reference. The cells were then stimulated by overnight treatment in the presence of 10 μg/mL PMA (Phorbol-Myristate-Acetate).
At the end of treatment, IL-1 alpha produced was quantified by ELISA assay in culture supernatants.
The results were statistically analyzed by one-way analysis of variance (ANOVA), followed by Tukey post-test.

[3] = tested on: Interleukin-1 alpha; assay: IL-1 alpha produced by reconstructed epidermis stimulated by PMA; details: Dexamethasone 1 μM systemically; PMA 0.5 μg/mL
Protocol: as §2
Reconstructed epidermis were treated topically with a formulation (cream) containing 1% tea tree oil concentrate or its placebo, or systemically with 1 μM dexamethasone, an anti-inflammatory reference. After 24 hours of pre-incubation, epidermis were stimulated with 0.5 μg/mL of PMA and incubated again for 24 hours.
Culture subnatants were collected then IL-1 alpha assay was performed.
as §1
Reconstructed epidermis were treated topically with a formulation (cream) containing 1% tea tree oil concentrate or its placebo, or systemically with 1 μM dexamethasone, an anti-inflammatory reference. After 24 hours of pre-incubation, epidermis were stimulated with 0.5 μg/ml of PMA and incubated again for 24 hours. […]

[4] = tested on: cortisol; assay: Cortisol produced by skin explants stimulated by ACTH + 42° C. (ELISA); details: Metyrapone 1 mM
Protocol: Skin explants were treated topically with a formulation (cream) containing 1% tea oil concentrate, or its placebo, or treated systemically (in the culture medium) with 0.001% tea oil concentrate and the positive reference metyrapone at 1 mM. The explants were incubated for 24 hours then stressed with 0.6 μM ACTH (Adreno Corticotropic Hormone), a hormone that induces cortisol production. This stress was coupled with explant culture in a 42° C. incubator to potentiate the increase in cortisol production. The explants were again treated with topical products or the active ingredient and the positive reference systemically. After 24 hours of incubation, the culture media were recovered and an ELISA assay for cortisol was performed. The results were statistically analyzed by Student's test t.

[5] = tested on: dermal matrix markers (Collagen III, Fibrillin 1); assay: Gene expression of dermal matrix markers in normal human dermal fibroblasts (real-time PCR); details: TGFβ 1 5 ng/ml, 48 hours
Protocol: The effect of tea oil concentrate on the expression of dermal matrix markers was evaluated in cultured normal human dermal fibroblasts.
Normal human dermal fibroblasts were incubated for 48 hours in the presence of 0.001% and 0.005% tea oil concentrate or 5 ng/ml TGFβ1, the positive reference of the test.
Gene expression of Collagen Ill and Fibrillin 1 was evaluated by quantitative real-time PCR. The results were statistically analyzed by one-way analysis of variance (ANOVA), followed by Dunnett's post-test.

[6] = ACTH 0.6 μM + 42° C., Table 16 (systemic series)

For C[C@@H]1C[C@H]2[C@@H]3CCC4=CC(=O)C=C[C@]4(C)[C@@]3(F)[C@@H](O)C[C@]2(C)[C@@]1(O)C(=O)CO [Dexamethasone, dexamethasone], the “CCL2 expression level in relative quantity” value [1] was 193, the “CXCL1 expression level in relative quantity” value [1] was 1503 and the “HAS2 expression level in relative quantity” value [1] was 104. The “IL6 expression level in relative quantity” value [1] was 305, the “IL8 expression level in relative quantity” value [1] was 1350 and the “MMP1 expression level in relative quantity” value [1] was 52. For the same molecule, the “MMP3 expression level in relative quantity” value [1] was 74, the “SOD2 expression level in relative quantity” value [1] was 354 and the IL-1 alpha ([2]; 24 h pre-incubation) was 66.6 ± 0.5 pg/mL. The “Protection (%)” value [2] was 74%, the “% Protection” value [3] was 48% and the Interleukin-1 alpha [3] was 334 ± 41 pg/mL.
With CC(C)(C(=O)c1cccnc1)c1cccnc1 [Metyrapone, metyrapone] the “Cortisol % Protection” value [4, 6] was 70%, the “Cortisol Relative quantification” value [4, 6] was 1.08 ± 0.12 and the “Cortisol Relative quantification” value ([4]; ACTH 0.6 μM + 42° C., Table 17 (topical series)) was 1.08 ± 0.12. The “Cortisol % Protection (vs ACTH/42° C.)” value ([4]; Table 17 (topical series)) was 73%.
With “TGFβ 1: the positive reference of the test” the “Collagen III gene expression (Relative Quantity)” value [5] was 1.55 ± 0.25, the “Fibrillin 1 gene expression (Relative Quantity)” value [5] was 1.53 ± 0.18 and the “Collagen III gene expression % induction” value ([5]; vs control cells) was “+78% p < 0.05”. The “Fibrillin 1 gene expression % induction” value ([5]; vs control cells) was “+74% p < 0.05”.
